Reference: patent publication US10287301B2 (Achillion Pharmaceuticals, Inc., priority 2015, dated 2019)
pIC50: −log10 of the molar value. Where two headings read alike, the source gives them in different places.

Target: Human Factor D (Homo sapiens (Human), UniProt P00746)
Test: Human Factor D Assay
Format: biochemical
Procedure, shortened: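 Thioester cleavage assay: human Factor D (serum-derived, 80 nM final), substrate Z-L-Lys-SBzl with DTNB, both 100 μM final, after 5 min compound preincubation at room temperature.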

[1] = Human Factor D 80 nM, substrate Z-L-Lys-SBzl, read-out: IC50
[2] = Human Factor D assay of Example 8, Table 2, read-out: IC50

Sequence of Human Factor D (P00746 26-253): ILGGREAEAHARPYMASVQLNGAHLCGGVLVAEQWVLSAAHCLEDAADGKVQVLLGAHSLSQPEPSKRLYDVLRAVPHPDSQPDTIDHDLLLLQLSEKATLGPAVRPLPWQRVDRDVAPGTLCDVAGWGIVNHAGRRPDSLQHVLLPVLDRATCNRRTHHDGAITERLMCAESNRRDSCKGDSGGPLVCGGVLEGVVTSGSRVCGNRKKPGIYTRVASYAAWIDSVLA

NC(=O)c1nn(CC(=O)N2C[C@H](F)C[C@H]2C(=O)N[C@H]2CCCC[C@@H]2O)c2ccc(-c3ccnnc3)cc12 [Compound 172, 1-(2-((2S,4R)-4-fluoro-2-((1S,2S)-2-hydroxycyclohexylcarbamoyl)pyrrolidin-1-yl)-2-oxoethyl)-5-(pyridazin-4-yl)-1H-indazole-3-carboxamide]
pIC50 [1]: < 5.00

CC(=O)c1cn(CC(=O)N2C[C@H](F)C[C@H]2C(=O)Nc2ccnc(=O)n2C)c2ccc(-c3ccnnc3)cc12 [Compound 173, (2S,4R)-1-(2-(3-acetyl-5-(pyridazin-4-yl)-1H-indol-1-yl)acetyl)-4-fluoro-N-(3-methyl-2-oxo-2,3-dihydropyrimidin-4-yl)pyrrolidine-2-carboxamide]
pIC50 [1]: < 5.00

NC(=O)c1nn(CC(=O)N2C[C@H](F)C[C@H]2C(=O)Nc2cccc(O)n2)c2ccc(-c3ccnnc3)cc12 [Compound 174, 1-(2-((2S,4R)-4-fluoro-2-(6-hydroxypyridin-2-ylcarbamoyl)pyrrolidin-1-yl)-2-oxoethyl)-5-(pyridazin-4-yl)-1H-indazole-3-carboxamide]
pIC50 [1]: < 5.00

CC(=O)c1cn(CC(=O)N2C[C@H](F)C[C@H]2C(=O)Nc2ccc(O)cn2)c2ccc(-c3ccnnc3)cc12 [Compound 175, (2S,4R)-1-(2-(3-acetyl-5-(pyridazin-4-yl)-1H-indol-1-yl)acetyl)-4-fluoro-N-(5-hydroxypyridin-2-yl)pyrrolidine-2-carboxamide]
pIC50 [1]: < 5.00

NC(=O)c1nn(CC(=O)N2C[C@H](F)C[C@H]2C(=O)Nc2ccc(O)cn2)c2ccc(-c3ccnnc3)cc12 [Compound 176, 1-(2-((2S,4R)-4-fluoro-2-(5-hydroxypyridin-2-ylcarbamoyl)pyrrolidin-1-yl)-2-oxoethyl)-5-(pyridazin-4-yl)-1H-indazole-3-carboxamide]
pIC50 [1]: < 5.00

CC(=O)c1cn(CC(=O)N2C[C@H](F)C[C@H]2C(=O)Nc2cc(O)ccn2)c2ccc(-c3ccnnc3)cc12 [Compound 177, (2S,4R)-1-(2-(3-acetyl-5-(pyridazin-4-yl)-1H-indol-1-yl)acetyl)-4-fluoro-N-(4-hydroxypyridin-2-yl)pyrrolidine-2-carboxamide]
pIC50: 5.00 to 6.00

NC(=O)c1nn(CC(=O)N2C[C@H](F)C[C@H]2C(=O)Nc2nccc(Cl)n2)c2ccc(-c3ccnnc3)cc12 [Compound 178, 1-(2-((2S,4R)-2-(4-chloropyrimidin-2-ylcarbamoyl)-4-fluoropyrrolidin-1-yl)-2-oxoethyl)-5-(pyridazin-4-yl)-1H-indazole-3-carboxamide]
pIC50 [1]: < 5.00

NC(=O)c1nn(CC(=O)N2C[C@H](F)C[C@H]2C(=O)Nc2ncc(I)cn2)c2ccc(-c3ccnnc3)cc12 [Compound 179, 1-(2-((2S,4R)-4-fluoro-2-(5-iodopyrimidin-2-ylcarbamoyl)pyrrolidin-1-yl)-2-oxoethyl)-5-(pyridazin-4-yl)-1H-indazole-3-carboxamide]
pIC50: 5.00 to 6.00

CC(=O)c1cn(CC(=O)N2C[C@H](F)C[C@H]2C(=O)Nc2nccc(Cl)n2)c2ccc(-c3ccnnc3)cc12 [Compound 180, (2S,4R)-1-(2-(3-acetyl-5-(pyridazin-4-yl)-1H-indol-1-yl)acetyl)-N-(4-chloropyrimidin-2-yl)-4-fluoropyrrolidine-2-carboxamide]
pIC50 [1]: < 5.00

CC(=O)c1cn(CC(=O)N2C[C@H](F)C[C@H]2C(=O)Nc2ccccc2-c2nncn2C)c2ccc(-c3ccnnc3)cc12 [Compound 181, (2S,4R)-1-(2-(3-acetyl-5-(pyridazin-4-yl)-1H-indol-1-yl)acetyl)-4-fluoro-N-(2-(4-methyl-4H-1,2,4-triazol-3-yl)phenyl) pyrrolidine-2-carboxamide]
pIC50 [1]: < 5.00

CC(=O)c1cn(CC(=O)N2C[C@H](F)C[C@H]2C(=O)Nc2noc(-c3ccccc3Cl)n2)c2ccc(-c3ccnnc3)cc12 [Compound 182, (2S,4R)-1-(2-(3-acetyl-5-(pyridazin-4-yl)-1H-indol-1-yl)acetyl)-N-(5-(2-chlorophenyl)-1,2,4-oxadiazol-3-yl)-4-fluoropyrrolidine-2-carboxamide]
pIC50 [1]: > 6.00

NC(=O)c1nn(CC(=O)N2C[C@H](F)C[C@H]2C(=O)Nc2cccnc2Cl)c2ccc(-c3ccnnc3)cc12 [Compound 185, 1-(2-((2S,4R)-2-(2-chloropyridin-3-ylcarbamoyl)-4-fluoropyrrolidin-1-yl)-2-oxoethyl)-5-(pyridazin-4-yl)-1H-indazole-3-carboxamide]
pIC50: 5.00 to 6.00

CC(=O)c1cn(CC(=O)N2C[C@H](F)C[C@H]2C(=O)Nc2cccc(-c3ccccc3Cl)c2F)c2ccc(-c3cnc(O)nc3)cc12 [Compound 186, (2S,4R)-1-(2-(3-acetyl-5-(2-hydroxypyrimidin-5-yl)-1H-indol-1-yl)acetyl)-N-(2′-chloro-2-fluorobiphenyl-3-yl)-4-fluoropyrrolidine-2-carboxamide]
pIC50 [1]: > 6.00

COCCNc1ncc(-c2ccc3c(c2)c(C(C)=O)cn3CC(=O)N2C[C@H](F)C[C@H]2C(=O)Nc2cccc(-c3ccccc3Cl)c2F)cn1 [Compound 187, (2S,4R)-1-(2-(3-acetyl-5-(2-(2-methoxyethylamino)pyrimidin-5-yl)-1H-indol-1-yl)acetyl)-N-(2′-chloro-2-fluorobiphenyl-3-yl)-4-fluoropyrrolidine-2-carboxamide]
pIC50 [1]: > 6.00

CNc1ncc(-c2ccc3c(c2)c(C(C)=O)cn3CC(=O)N2C[C@H](F)C[C@H]2C(=O)Nc2cccc(-c3ccccc3Cl)c2F)cn1 [Compound 188, (2S,4R)-1-(2-(3-acetyl-5-(2-(methylamino)pyrimidin-5-yl)-1H-indol-1-yl)acetyl)-N-(2′-chloro-2-fluorobiphenyl-3-yl)-4-fluoropyrrolidine-2-carboxamide]
pIC50 [1]: > 6.00

CC(=O)c1nn(CC(=O)N2[C@@H]3C[C@@H]3C[C@H]2C(=O)Nc2cccc(-c3ccccc3Cl)c2F)c2ccc(-c3cnc(C)nc3)cc12 [Compound 189, (1R,3S,5R)-2-(2-(3-acetyl-5-(2-methylpyrimidin-5-yl)-1H-indazol-1-yl)acetyl)-N-(2′-chloro-2-fluorobiphenyl-3-yl)-2-azabicyclo[3.1.0] hexane-3-carboxamide]
pIC50 [1]: > 6.00

CC(=O)c1nn(CC(=O)N2[C@@H]3C[C@@H]3C[C@H]2C(=O)Nc2cccc(Br)n2)c2ccc(-c3cnc(C)nc3)cc12 [Compound 190, (1R,3S,5R)-2-(2-(3-acetyl-5-(2-methylpyrimidin-5-yl)-1H-indazol-1-yl)acetyl)-N-(6-bromopyridin-2-yl)-2-azabicyclo[3.1.0] hexane-3-carboxamide]
pIC50 [1]: > 6.00

CC(=O)c1cn(CC(=O)N2C[C@H](F)C[C@H]2C(=O)Nc2cccc(-c3ccccc3Cl)c2F)c2ccc(-c3cnc(C(F)(F)F)nc3)cc12 [Compound 191, (2S,4R)-1-(2-(3-acetyl-5-(2-(trifluoromethyl)pyrimidin-5-yl)-1H-indol-1-yl)acetyl)-N-(2′-chloro-2-fluorobiphenyl-3-yl)-4-fluoropyrrolidine-2-carboxamide]
pIC50 [1]: > 6.00

CC(=O)c1ccc(Cl)c(-c2cccc(NC(=O)[C@@H]3C[C@@H](F)CN3C(=O)Cn3nc(C(C)=O)c4cc(-c5cnc(C)nc5)ccc43)c2F)c1 [Compound 192, (2S,4R)-N-(5′-acetyl-2′-chloro-2-fluorobiphenyl-3-yl)-1-(2-(3-acetyl-5-(2-methylpyrimidin-5-yl)-1H-indazol-1-yl)acetyl)-4-fluoropyrrolidine-2-carboxamide]
pIC50 [2]: > 6.00

CC(=O)c1cn(CC(=O)N2C[C@H](F)C[C@H]2C(=O)Nc2cccc(-c3ccccc3Cl)c2F)c2ccc(-c3cnc(NCC(F)(F)F)nc3)cc12 [Compound 193, (2S,4R)-1-(2-(3-acetyl-5-(2-(2,2,2-trifluoroethylamino)pyrimidin-5-yl)-1H-indol-1-yl)acetyl)-N-(2′-chloro-2-fluorobiphenyl-3-yl)-4-fluoropyrrolidine-2-carboxamide]
pIC50 [2]: > 6.00

CCOc1ncc(-c2ccc3c(c2)c(C(C)=O)cn3CC(=O)N2C[C@H](F)C[C@H]2C(=O)Nc2cccc(-c3ccccc3Cl)c2F)cn1 [Compound 194, (2S,4R)-1-(2-(3-acetyl-5-(2-ethoxypyrimidin-5-yl)-1H-indol-1-yl)acetyl)-N-(2′-chloro-2-fluorobiphenyl-3-yl)-4-fluoropyrrolidine-2-carboxamide]
pIC50 [2]: > 6.00

NC(=O)c1nn(CC(=O)N2C[C@H](F)C[C@H]2C(=O)Nc2cccnc2O)c2ccc(-c3ccnnc3)cc12 [Compound 196, 1-(2-((2S,4R)-4-fluoro-2-(2-hydroxypyridin-3-ylcarbamoyl)pyrrolidin-1-yl)-2-oxoethyl)-5-(pyridazin-4-yl)-1H-indazole-3-carboxamide]
pIC50 [2]: < 5.00

CC(=O)c1cn(CC(=O)N2C[C@H](F)C[C@H]2C(=O)Nc2cccnc2O)c2ccc(-c3ccnnc3)cc12 [Compound 197]
pIC50 [2]: < 5.00

CC(=O)c1nn(CC(=O)N2C[C@H](F)C[C@H]2C(=O)Nc2cccc(-c3cc(C(N)=O)ccc3Cl)c2F)c2ccc(-c3cnc(C)nc3)cc12 [Compound 198, (2S,4R)-1-(2-(3-acetyl-5-(2-methylpyrimidin-5-yl)-1H-indazol-1-yl)acetyl)-N-(5′-carbamoyl-2′-chloro-2-fluorobiphenyl-3-yl)-4-fluoropyrrolidine-2-carboxamide]
pIC50 [2]: > 6.00

Cc1ncc(-c2ccc3c(c2)c(C(N)=O)nn3CC(=O)N2[C@@H]3C[C@@H]3C[C@H]2C(=O)Nc2cccc(Br)n2)cn1 [Compound 202, 1-(2-((1R,3S,5R)-3-(6-bromopyridin-2-ylcarbamoyl)-2-azabicyclo[3.1.0]hexan-2-yl)-2-oxoethyl)-5-(2-methylpyrimidin-5-yl)-1H-indazole-3-carboxamide]
pIC50 [2]: > 6.00

COc1ncc(-c2ccc3c(c2)c(C(C)=O)cn3CC(=O)N2C[C@H](Cl)C[C@H]2C(=O)Nc2cccc(-c3ccccc3Cl)c2F)cn1 [Compound 203]
pIC50 [2]: > 6.00

COC(=O)c1ncc(-c2ccc3c(c2)c(C(C)=O)cn3CC(=O)N2C[C@H](F)C[C@H]2C(=O)Nc2cccc(-c3ccccc3Cl)c2F)cn1 [Compound 204, methyl 5-(3-acetyl-1-(2-((2S,4R)-2-(2′-chloro-2-fluorobiphenyl-3-ylcarbamoyl)-4-fluoropyrrolidin-1-yl)-2-oxoethyl)-1H-indol-5-yl)pyrimidine-2-carboxylate]
pIC50 [2]: > 6.00
